Tested on: lipid levels, Ki67, Insig1 pS207/Insig2 pS151
Assay: Oil Red O and IHC of tumors from high-fat diet mice
Assay type: in vivo, nude mice
Details: orthotopic Huh7, high-fat diet, IHC; semaglutide 30 nmol/kg ip daily and/or LNP peptide 10 mg/kg iv
Procedure: Figure 5 The Insig1/2 loop 1 peptide in combination with semaglutide treatment induces an additive tumor inhibitor effect. a–c) Huh7 cells were orthotopically injected into the liver of nude mice (n = 7 per group). Treatment groups received intravenous injections of LNP@Insig1/2 loop 1 peptide (10 mg kg^−1, every other day), and/or intraperitoneal injection of Semaglutide (30 nmol kg^−1, daily). (a) Representative optical images of tumors, (b) tumor weights, data are expressed as mean ± SD, statistical significance was determined by one‐way analysis of variance (ANOVA), and (c) survival analysis was performed using Kaplan‐Meier curves. Statistical significance was determined by Log‐rank (Mantel‐Cox) test. d) Cryosections of mouse tumor tissues were prepared, and lipid accumulation was assessed by Oil Red O staining. […] Quantitative analysis of lipid droplet counts (Oil Red O‐positive particles) was performed. Data are expressed as mean ± SD (n = 3). Statistical significance was determined by one‐way analysis of variance (ANOVA). e) Immunohistochemical (IHC) analysis of mouse tumor specimens was performed using the Ki67 antibody. […] Data are expressed as mean ± SD (n = 3). Statistical significance was determined by one‐way analysis of variance (ANOVA). f) Immunohistochemical (IHC) analysis of mouse tumor specimens was performed using the Insig1 pS207/Insig2 pS151 antibody. […]

Sequence: RKKRRQRRRLYPCIDSHLGEPHKFKRE [Insig1/2 loop 1 peptide]
- high-fat diet-enhanced Insig1 S207 and Insig2 S151 phosphorylation in tumors: reduced
